Like-named read-outs stand apart in the source and are kept apart here.
Tests used:
Ramos cells = experiment: Cytotoxicity in Ramos cells; format: cell-based; settings: cytotoxicity in Ramos cells, read-out: Ramos Cell EC50
F1F0-ATPase = molecular target: T1, F1F0-ATPase (Bos taurus, UniProt P13621); experiment: Inhibition of F1F0-ATPase activity in synthesizing ATP; format: biochemical; settings: inhibition of ATP synthesis by F1F0-ATPase; read-out: ATP Syn IC50
T1 construct: from tissue

Structure (SMILES) | IC50 (F1F0-ATPase) [µM] | EC50 (Ramos cells) [µM] | EC50 (Ramos cells; Homo sapiens) [µM]
Cc1ccc(-c2cc(N/C(=N\C(=O)c3ccc(C(F)(F)F)cc3)NC3CCC3)[nH]n2)cc1F [Compound A-329] | < 10 | < 10 | –
CCC(C)CN/C(=N/C(=O)c1ccc(C(F)(F)F)cc1)Nc1cc(-c2ccc(C)c(F)c2)n[nH]1 (stereo not drawn) [Compound A-330] | > 10 | > 10 | –
Cc1ccc(-c2cc(N/C(=N\C(=O)c3ccc(C(F)(F)F)cc3)NCC(C)C)[nH]n2)cc1F [Compound A-332] | < 10 | > 10 | –
Cc1ccc(-c2cc(N/C(=N\C(=O)c3ccc(C(F)(F)F)cc3)NC(C)C(C)C)[nH]n2)cc1F (stereo not drawn) [Compound A-333] | < 10 | > 10 | –
CCC(C)N/C(=N/C(=O)c1ccc(C(F)(F)F)cc1)Nc1cc(-c2ccc(C)c(F)c2)n[nH]1 (stereo not drawn) [Compound A-334] | < 10 | < 10 | –
CC(C)(C)c1n[nH]c(NC(=NC(=O)c2ccc(C(F)(F)F)cc2)NCc2ccc(F)cc2Cl)c1F [Compound A-335] | < 10 | – | < 10
CC(C)(C)c1n[nH]c(N/C(=N\C(=O)c2ccc(C(F)(F)F)cc2)Nc2ccc(F)cc2Cl)c1F [Compound A-336] | < 10 | < 10 | –
CNC(=O)c1cc(NC(=NC(=O)c2ccc(C(F)(F)F)cc2)Nc2ccc(F)cc2Cl)[nH]n1 [Compound A-337] | > 10 | – | > 10
COC(=O)c1cc(NC(=NC(=O)c2ccc(C(F)(F)F)cc2)NCc2ccc(F)cc2Cl)[nH]n1 [Compound A-338] | < 10 | – | < 10
CC(C)(C)N/C(=N/C(=O)c1ccc(C(F)(F)F)cc1)Nc1[nH]nc(C(C)(C)C)c1F [Compound A-340] | < 10 | < 10 | –
Cc1cc(C(=O)/N=C(\Nc2cc(-c3ccc(F)cc3)n[nH]2)NC(C)(C)C)ccn1 [Compound A-341] | < 10 | < 10 | –
COC(=O)c1cccc(C(=O)/N=C(\Nc2cc(-c3ccc(F)cc3)n[nH]2)NC(C)(C)C)c1 [Compound A-342] | < 10 | < 10 | –
N#CC1(N/C(=N/C(=O)c2ccc(Cl)c(F)c2)Nc2cc(-c3cc(F)cc(F)c3)n[nH]2)CC1 [Compound A-343] | < 10 | – | > 10
CC(C)OCCCNC(=NC(=O)c1ccc(Cl)c(F)c1)Nc1cc(-c2cc(F)cc(F)c2)n[nH]1 [Compound A-344] | < 10 | – | < 10
CC(C)(C)c1cc(NC(=NC(=O)c2ccc(Cl)c(F)c2)Nc2cc(-c3cc(F)cc(F)c3)n[nH]2)no1 [Compound A-345] | > 10 | – | > 10
CCC(C)CN/C(=N/C(=O)c1ccc(Cl)c(F)c1)Nc1cc(-c2cc(F)cc(F)c2)n[nH]1 (stereo not drawn) [Compound A-346] | < 10 | < 10 | –
O=C(/N=C(\Nc1cc(-c2cc(F)cc(F)c2)n[nH]1)NC1CCC1)c1ccc(Cl)c(F)c1 [Compound A-347] | < 10 | < 10 | –
CCCC(C)NC(=NC(=O)c1ccc(Cl)c(F)c1)Nc1cc(-c2cc(F)cc(F)c2)n[nH]1 (stereo not drawn) [Compound A-348] | < 10 | – | < 10
CC(C)CCNC(=NC(=O)c1ccc(Cl)c(F)c1)Nc1cc(-c2cc(F)cc(F)c2)n[nH]1 [Compound A-349] | < 10 | – | < 10
CCC(CC)NC(=NC(=O)c1ccc(Cl)c(F)c1)Nc1cc(-c2cc(F)cc(F)c2)n[nH]1 [Compound A-350] | < 10 | – | < 10
CC(C)C(C)NC(=NC(=O)c1ccc(Cl)c(F)c1)Nc1cc(-c2cc(F)cc(F)c2)n[nH]1 (stereo not drawn) [Compound A-351] | < 10 | – | < 10
CC(C)CN/C(=N/C(=O)c1ccc(Cl)c(F)c1)Nc1cc(-c2cc(F)cc(F)c2)n[nH]1 [Compound A-352] | < 10 | < 10 | –
CC(C)N/C(=N/C(=O)c1ccc(Cl)c(F)c1)Nc1cc(-c2cc(F)cc(F)c2)n[nH]1 [Compound A-359] | < 10 | < 10 | –
CCCCN/C(=N/C(=O)c1ccc(Cl)c(F)c1)Nc1cc(-c2cc(F)cc(F)c2)n[nH]1 [Compound A-360] | < 10 | < 10 | –
O=C(/N=C(/NCC1CC1)Nc1cc(-c2cc(F)cc(F)c2)n[nH]1)c1ccc(Cl)c(F)c1 [Compound A-361] | < 10 | < 10 | –

Further lines, with some results ahead:

IC50 (F1F0-ATPase) [µM] | Structure (SMILES) | EC50 (Ramos cells) [µM] | EC50 (Ramos cells; Homo sapiens) [µM]
< 10 | CCC(C)NC(=NC(=O)c1ccc(Cl)c(F)c1)Nc1cc(-c2cc(F)cc(F)c2)n[nH]1 (stereo not drawn) [Compound A-362] | – | < 10
< 10 | COCC(C)NC(=NC(=O)c1ccc(F)c(F)c1)Nc1cc(-c2cc(F)cc(F)c2)n[nH]1 (stereo not drawn) [Compound A-363] | – | < 10
< 10 | CC(C)CNC(=NC(=O)c1ccc(F)c(F)c1)Nc1cc(-c2cc(F)cc(F)c2)n[nH]1 [Compound A-364] | – | < 10
< 10 | O=C(N=C(Nc1cc(-c2cc(F)cc(F)c2)n[nH]1)NC1CCCC1)c1ccc(F)c(F)c1 [Compound A-365] | – | < 10
< 10 | CC(C)N/C(=N/C(=O)c1ccc(F)c(F)c1)Nc1cc(-c2cc(F)cc(F)c2)n[nH]1 [Compound A-366] | < 10 | –
< 10 | COCC(C)NC(=NC(=O)c1cccc(F)c1)Nc1cc(-c2cc(F)cc(F)c2)n[nH]1 (stereo not drawn) [Compound A-367] | < 10 | –
< 10 | CC(C)CN/C(=N/C(=O)c1cccc(F)c1)Nc1cc(-c2cc(F)cc(F)c2)n[nH]1 [Compound A-368] | < 10 | –
< 10 | O=C(N=C(Nc1cc(-c2cc(F)cc(F)c2)n[nH]1)NC1CCCC1)c1cccc(F)c1 [Compound A-369] | – | < 10
< 10 | CC(C)NC(=NC(=O)c1cccc(F)c1)Nc1cc(-c2cc(F)cc(F)c2)n[nH]1 [Compound A-370] | – | < 10
> 10 | COCC(C)NC(=NC(=O)c1ccc(OC)cc1F)Nc1cc(-c2ccc(F)cc2)n[nH]1 (stereo not drawn) [Compound A-371] | > 10 | –
< 10 | COc1ccc(C(=O)/N=C(/NCC(C)C)Nc2cc(-c3ccc(F)cc3)n[nH]2)c(F)c1 [Compound A-372] | > 10 | –
< 10 | COc1ccc(C(=O)/N=C(\Nc2cc(-c3ccc(F)cc3)n[nH]2)NC(C)(C)C)c(F)c1 [Compound A-373] | < 10 | –
< 10 | COc1ccc(C(=O)/N=C(\Nc2cc(-c3ccc(F)cc3)n[nH]2)NC(C)C)c(F)c1 [Compound A-374] | < 10 | –
< 10 | CC(C)(C)N/C(=N/C(=O)c1ccc(S(N)(=O)=O)cc1)Nc1cc(-c2ccc(F)cc2)n[nH]1 [Compound A-375] | < 10 | –
< 10 | COCC(C)NC(=NC(=O)c1ccc(F)c(F)c1)Nc1cc(-c2ccc(Cl)cc2)n[nH]1 (stereo not drawn) [Compound A-376] | – | < 10
< 10 | CC(C)CN/C(=N/C(=O)c1ccc(F)c(F)c1)Nc1cc(-c2ccc(Cl)cc2)n[nH]1 [Compound A-377] | < 10 | –
< 10 | O=C(N=C(Nc1cc(-c2ccc(Cl)cc2)n[nH]1)NC1CCCC1)c1ccc(F)c(F)c1 [Compound A-378] | – | < 10
< 10 | CC(C)NC(=NC(=O)c1ccc(F)c(F)c1)Nc1cc(-c2ccc(Cl)cc2)n[nH]1 [Compound A-379] | – | < 10

IC50 (F1F0-ATPase) [µM] | Structure (SMILES) | EC50 (Ramos cells) [µM] | EC50 (Ramos cells; Homo sapiens) [µM]
< 10 | COC[C@H](C)N/C(=N/C(=O)c1ccc(Cl)c(F)c1)Nc1cc(-c2ccc(Cl)cc2)n[nH]1 [Compound A-380] | < 10 | –
< 10 | CC(C)CNC(=NC(=O)c1ccc(Cl)c(F)c1)Nc1cc(-c2ccc(Cl)cc2)n[nH]1 [Compound A-381] | – | < 10
< 10 | O=C(N=C(Nc1cc(-c2ccc(Cl)cc2)n[nH]1)NC1CCCC1)c1ccc(Cl)c(F)c1 [Compound A-382] | – | < 10
< 10 | CC(C)NC(=NC(=O)c1ccc(Cl)c(F)c1)Nc1cc(-c2ccc(Cl)cc2)n[nH]1 [Compound A-383] | – | < 10
< 10 | COCC(C)NC(=NC(=O)c1cccc(F)c1)Nc1cc(-c2ccc(Cl)cc2)n[nH]1 (stereo not drawn) [Compound A-384] | < 10 | –
< 10 | O=C(/N=C(\Nc1cc(-c2ccc(Cl)cc2)n[nH]1)NC1CCCC1)c1cccc(F)c1 [Compound A-385] | < 10 | –
< 10 | CC(C)N/C(=N/C(=O)c1cccc(F)c1)Nc1cc(-c2ccc(Cl)cc2)n[nH]1 [Compound A-386] | < 10 | –
< 10 | COc1cccc(F)c1C(=O)/N=C(\Nc1cc(-c2ccc(F)cc2)n[nH]1)NC(C)(C)C [Compound A-387] | > 10 | –
< 10 | O=C(/N=C(\Nc1cc(-c2ccc(F)cc2)n[nH]1)NC1CCCC1)c1cccc(F)c1 [Compound A-388] | < 10 | –
< 10 | COCC(C)NC(=NC(=O)c1cccc(F)c1)Nc1cc(-c2ccc(F)cc2)n[nH]1 (stereo not drawn) [Compound A-389] | < 10 | –
< 10 | CC(C)N/C(=N/C(=O)c1cccc(F)c1)Nc1cc(-c2ccc(F)cc2)n[nH]1 [Compound A-390] | > 10 | –
> 10 | C[C@@H](CO)N/C(=N/C(=O)c1ccc(F)cc1)Nc1cc(-c2ccc(F)cc2)n[nH]1 [Compound A-391] | > 10 | –
< 10 | COc1cccc(CN/C(=N/C(=O)c2ccc(F)c(C)c2)Nc2cc(-c3ccc(F)cc3)n[nH]2)c1 [Compound A-392] | < 10 | –
< 10 | Cc1cc(C(=O)/N=C(/NCc2ccccc2C)Nc2cc(-c3ccc(F)cc3)[nH]n2)ccc1F [Compound A-393] | < 10 | –
< 10 | COc1cccc(CN/C(=N/C(=O)c2cccc(OC)c2)Nc2cc(-c3ccc(F)cc3)[nH]n2)c1 [Compound A-394] | < 10 | –
< 10 | COc1cccc(C(=O)/N=C(/NCc2ccccc2C)Nc2cc(-c3ccc(F)cc3)[nH]n2)c1 [Compound A-395] | < 10 | –
< 10 | COc1cccc(CN/C(=N/C(=O)c2cc(F)c(F)c(F)c2)Nc2cc(-c3ccc(F)cc3)[nH]n2)c1 [Compound A-396] | < 10 | –

Reference: patent US9139532B2, “Pyrazolyl guanidine F1F0-atpase inhibitors and therapeutic uses thereof” (Lycera Corporation, priority 2010, dated 2015)
